Assay results: patent publication US20260285850A1, “SUBSTITUTED OXAZOLIDINONES AND IMIDAZOLINONES AS HERBICIDES” (FMC CORPORATION, priority 2023, published 2026)

How the values were obtained:
Assay type in all cases: in vivo
[1] = system: ducksalad (Heteranthera limosa); assay: Test B flooded paddy test, visual plant response rating 0-100; details: 250 g ai/ha, Flood, applied to paddy water, evaluated after 13 days
In short: (§1)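 Greenhouse, 13 d. Seedlings at 2-leaf stage, pots flooded to 3 cm, compound delivered into floodwater, water level held constant. Evaluated visually relative to controls.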

rice (Oryza sativa) = assay: as above; details: 250 g ai/ha, Flood, applied to paddy water, evaluated after 13 days
In short: as §1

[2] = system: barnyardgrass (Echinochloa crusgalli); assay: as above; details: 250 g ai/ha, Flood, applied to paddy water, evaluated after 13 days
In short: as §1

[3] = system: sedge, umbrella (small-flower umbrella sedge, Cyperus difformis); assay: as above; details: 250 g ai/ha, Flood, applied to paddy water, evaluated after 13 days
In short: as §1

[4] = system: ryegrass, Italian (italian ryegrass, Lolium multiflorum); assay: Test A postemergence application, visual injury rating 0-100
In short: (§2)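 Rating: visual, day 10, untreated plants as reference, 0 no effect to 100 full control. Plants were in loam-sand and were treated either preemergence via directed soil spray or postemergence at the one- to two-leaf stage.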

corn (Zea mays) [5] = assay: as above
In short: as §2

[6] = system: oat, wild (wild oat, Avena fatua); assay: as above
In short: as §2

[7] = system: ragweed (common ragweed, Ambrosia artemisiifolia); assay: as above
In short: as §2

[8] = system: galium (catchweed bedstraw, Galium aparine); assay: as above
In short: as §2

kochia (Bassia scoparia) [9] = assay: as above
In short: as §2

[10] = system: horseweed (Erigeron canadensis); assay: as above
In short: as §2

[11] = system: blackgrass (Alopecurus myosuroides); assay: as above
In short: as §2

soybean (Glycine max) [12] = assay: as above
In short: as §2

[13] = system: green foxtail (Setaria viridis); assay: as above
In short: as §2

[14] = system: wheat (Triticum aestivum); assay: as above
In short: as §2

[15] = system: palmer (palmer amaranth, palmer pigweed, Amaranthus palmeri); assay: as above
In short: as §2

[16] = system: barnyardgrass (Echinochloa crus-galli); assay: as above
In short: as §2

[17] = system: ryegrass, Italian (italian ryegrass, Lolium multiflorum); assay: Test A preemergence soil spray, visual injury rating 0-100; details: 10 days
In short: as §2

corn (Zea mays) [18] = assay: as above; details: 10 days
In short: as §2

[19] = system: oat, wild (wild oat, Avena fatua); assay: as above; details: 10 days
In short: as §2

[20] = system: ragweed (common ragweed, Ambrosia artemisiifolia); assay: as above; details: 10 days
In short: as §2

kochia (Bassia scoparia) [21] = assay: as above; details: 10 days
In short: as §2

[22] = system: blackgrass (Alopecurus myosuroides); assay: as above; details: 10 days
In short: as §2

soybean (Glycine max) [23] = assay: as above; details: 10 days
In short: as §2

[24] = system: green foxtail (Setaria viridis); assay: as above; details: 10 days
In short: as §2

[25] = system: wheat (Triticum aestivum); assay: as above; details: 10 days
In short: as §2

[26] = system: palmer (palmer amaranth, palmer pigweed, Amaranthus palmeri); assay: as above; details: 10 days
In short: as §2

[27] = system: barnyardgrass (Echinochloa crus-galli); assay: as above; details: 10 days
In short: as §2

[28] = 62 g ai/ha, postemergence, 10 days, 0 = no effect, 100 = complete control
[29] = Postemergence, 16 g ai/ha, greenhouse 10 days, 0 no effect, 100 complete control
[30] = 62 g ai/ha, 0 = no effect, 100 = complete control

CC1(C(=O)NC2C=CC(C(=O)O)C2)CN(c2cc(F)cc(F)c2)C(=O)O1 (stereo not shown) [Compound 131]
40: Horseweed plant response rating (0 to 100 scale) [10, 29]
70: Plant response rating, Rice (0 to 100 scale, 0 is no effect and 100 is complete control) (rice (Oryza sativa)) | Ragweed plant response rating (0-100) [7, 28] | Galium plant response rating (0 to 100 scale) [8, 29]
90: Ryegrass, Italian plant response rating (0-100) [4, 28] | Oat, Wild plant response rating (0-100) [6, 28] | Oat, Wild plant response rating (0 to 100 scale) [6, 29] | Galium plant response rating (0-100) [8, 28] | Blackgrass plant response rating (0-100) [11, 28] | Blackgrass plant response rating (0 to 100 scale) [11, 29] | Foxtail, Green plant response rating (0-100) [13, 28] | Wheat plant response rating (0-100) [14, 28] | Wheat plant response rating (0 to 100 scale) [14, 29] | Barnyardgrass plant response rating (0 to 100 scale) [16, 29] | Ryegrass, Italian plant response rating (0-100) [17, 30] | Kochia plant response rating (0-100) (kochia (Bassia scoparia) [21]; [30]) | Blackgrass plant response rating (0-100) [22, 30] | Wheat plant response rating (0-100) [25, 30]
100: Corn plant response rating (0-100) (corn (Zea mays) [5]; [28]) | Barnyardgrass plant response rating (0-100) [16, 28] | Foxtail, Green plant response rating (0-100) [24, 30]
80: Plant response rating, Ducksalad (0 to 100 scale, 0 is no effect and 100 is complete control) [1] | Horseweed plant response rating (0-100) [10, 28] | Soybean plant response rating (0-100) (soybean (Glycine max) [12]; [28]) | Soybean plant response rating (0 to 100 scale) (soybean (Glycine max) [12]; [29]) | Pigweed, Palmer plant response rating (0-100) [15, 28] | Corn plant response rating (0-100) (corn (Zea mays) [18]; [30]) | Soybean plant response rating (0-100) (soybean (Glycine max) [23]; [30]) | Pigweed, Palmer plant response rating (0-100) [26, 30] | Barnyardgrass plant response rating (0-100) [27, 30]
50: Corn plant response rating (0 to 100 scale) (corn (Zea mays) [5]; [29]) | Kochia plant response rating (0-100) (kochia (Bassia scoparia) [9]; [28])
95: Plant response rating, Barnyardgrass (0 to 100 scale, 0 is no effect and 100 is complete control) [2] | Plant response rating, Sedge, Umbrella (0 to 100 scale, 0 is no effect and 100 is complete control) [3]
30: Foxtail, Green plant response rating (0 to 100 scale) [13, 29] | Blackgrass plant response rating ([22]; 16 g ai/ha, 0 to 100 scale) | Wheat plant response rating ([25]; 16 g ai/ha, 0 to 100 scale)
10: Ryegrass, Italian plant response rating (0 to 100 scale) [4, 29] | Corn plant response rating (corn (Zea mays) [18]; 16 g ai/ha, 0 to 100 scale) | Ragweed plant response rating (0-100) [20, 30]
60: Oat, Wild plant response rating (0-100) [19, 30]
0: Ragweed plant response rating (0 to 100 scale) [7, 29] | Ryegrass, Italian plant response rating ([17]; 16 g ai/ha, 0 to 100 scale) | Oat, Wild plant response rating ([19]; 16 g ai/ha, 0 to 100 scale) | Ragweed plant response rating ([20]; 16 g ai/ha, 0 to 100 scale) | Kochia plant response rating (kochia (Bassia scoparia) [21]; 16 g ai/ha, 0 to 100 scale) | Soybean plant response rating (soybean (Glycine max) [23]; 16 g ai/ha, 0 to 100 scale) | Foxtail, Green plant response rating ([24]; 16 g ai/ha, 0 to 100 scale) | Pigweed, Palmer plant response rating ([26]; 16 g ai/ha, 0 to 100 scale) | Barnyardgrass plant response rating ([27]; 16 g ai/ha, 0 to 100 scale)
20: Kochia plant response rating (0 to 100 scale) (kochia (Bassia scoparia) [9]; [29]) | Pigweed, Palmer plant response rating (0 to 100 scale) [15, 29]
